Data taken from paper PMC5471521, “Novel selective β1-adrenoceptor antagonists for concomitant cardiovascular and respiratory disease” (The FASEB Journal, 2017).
Where two headings read alike, the source gives them in different places.

Columns and labels:
[1] = PK analysis in male Sprague-Dawley rats; assay type: in vivo; settings: rat; for AUC(0-t) / half-life / clearance / Vd / Cmax / Tmax / bioavailability: male, Sprague-Dawley; for AUC(0-t) / half-life / clearance / Vd / Cmax / Tmax / AUC0-t/dose: hydrochloride salt forms; for half-life: read-out: t1/2, app (converted); for Vd: read-out: Vss; for Unbound plasma level at Cmax below β2-AR Kd / Likely duration of β1-AR blockade: 20 mg/kg p.o.; for Likely duration of β1-AR blockade: judged from PK profile vs Kd
Protocol: Blood samples were centrifuged, supernatant plasma was removed, and plasma concentrations of compounds were determined by LC-MS. […] Studies were carried out by CDCO.

[2] = Protein binding by ultracentrifugation, human liver microsomes; assay type: in vitro ADME; settings: pH 7.4, 0.4 mg/ml protein, read-out: fu human liver microsomes
Protocol: (§1) Protein binding of 1 µM NDD-713.HCl and -825.HCl in human and rat plasma, as well as human liver microsomes, was assessed by using the ultracentrifugation technique. Frozen human plasma (Australian Red Cross Blood Service, Melbourne, VIC, Australia) and rat plasma (male Sprague-Dawley rats; Charles River, Margate, Kent, United Kingdom) were thawed at 37°C. Human liver microsomes (XenoTech) were suspended in 0.1 M phosphate buffer (pH 7.4) at protein concentrations of 0.4 mg/ml. Samples were collected immediately as stability reference controls. Spiked plasma samples (but not microsome samples) were incubated at 37°C for 1 h. […] NDD-713.HCl and -825.HCl concentrations of noncentrifuged matrix and protein-free supernatant were determined by UPLC-MS relative to calibration standards prepared in the respective matrices. Total concentration (Ctotal) was the average measured concentration in […] samples maintained at 37°C, and unbound concentration (Cunbound) was the average measured concentration in protein-free supernatants from centrifuged samples (n = 3). The compound unbound fraction (fu) was calculated: fu = Cunbound/Ctotal. Compound degradation was assessed by comparing concentrations in noncentrifuged plasma samples that were incubated at 37°C with concentrations measured in the t = 0 noncentrifuged samples. […]

human β1-AR [3] = target: T1, human β1-AR (Homo sapiens, UniProt P08588); experiment: 3H-cAMP accumulation agonist response in CHO-β1 cells; assay type: cell-based; settings: agonist mode
T1 construct: expressed in transfected cells
Protocol: Confluent cells were examined (24-well plates, 5 h incubation at 37°C) as described in Baker ([45]). Antagonist Kd values were calculated from a rightward shift of the agonist concentration response curve by using the Gaddum equation as previously described ([46]).

[4] = target: T2, native β2-AR in human bronchial smooth muscle cells (Homo sapiens, UniProt P07550); experiment: Antagonism of cimaterol-induced 3H-cAMP accumulation in human bronchial smooth muscle cells; assay type: cell-based; settings: cimaterol agonist, mean ± SEM
T2 construct: human bronchial smooth muscle cells (that natively express β2-AR); host or cells: human bronchial smooth muscle cells
Protocol: Human bronchial smooth muscle cells were obtained from Lonza (Basel, Switzerland) and grown in manufacturer media. Rat β-AR binding experiments (DNA from cDNA Resource Centre, Bloomsburg, PA, USA) were conducted by using transiently transfected CHO cells ([44]). […] Antagonist Kd values were calculated from a rightward shift of the agonist concentration response curve by using the Gaddum equation as previously described ([46]).

human β1-AR [5] = target: T1, human β1-AR; experiment: CRE-SPAP reporter gene assay in CHO-β1 cells; assay type: cell-based; settings: agonist mode, n = 5
Protocol: cAMP response element (CRE)–secreted placental alkaline phosphatase (SPAP) production was measured in confluent cells (96-well plates, 5 h incubation at 37°C) as described in Baker ([46]). This assay is a sensitive measure of both cAMP and ERK1/2 MAPK pathways ([47]).

hERG potassium channel = hERG potassium channel (Homo sapiens, UniProt Q12809); experiment: hERG 3H-astemizole radioligand binding; settings: 10 µM; concentrations >3000-fold β1-AR affinity
[6] = Protein binding by ultracentrifugation, human plasma; assay type: in vitro ADME; settings: read-out: fu human plasma
Protocol: as §1

[7] = Protein binding by ultracentrifugation, rat plasma; assay type: in vitro ADME; settings: male, Sprague-Dawley, read-out: fu rat plasma
Protocol: as §1

[8] = Metabolic stability, human hepatocytes; assay type: in vitro ADME; settings: cryopreserved hepatocytes
Protocol: NDD-713.HCl and -825.HCl were incubated (0.02, 0.1, or 0.5 μM at 37°C, 120 min) with human (XenoTech, Kansas City, KS, USA) or rat liver microsomes (BD Biosciences, Brea, CA, USA) at 0.4 mg/ml protein concentration. Metabolic reaction was initiated by addition of NADPH-regenerating system or NADPH-regenerating system with uridine diphosphate glucuronic acid. Samples were quenched at time points by acetonitrile addition. Control samples, which contained neither NADPH, nor uridine diphosphate glucuronic acid, were monitored for degradation. Compound concentrations were determined by ultraperformance LC-MS (UPLC-MS) relative to calibration standards that were prepared in quenched liver microsomes and fitted to exponential decay functions to determine first-order rate constants (k) for substrate depletion. These were used to calculate in vitro intrinsic clearance (CLint) values: CLint = k/microsomal protein content (0.4 mg protein/ml). Metabolic stability assays that used rat liver cytosol (BD Biosciences), human cryopreserved hepatocytes, or rat hepatocytes were carried out similarly. Average viable cell concentrations were determined by Trypan Blue exclusion methods (in the absence of test compounds). Studies were carried out by CDCO.

[9] = plasma, iv, i.v. 2 mg/kg, mean ± SD n = 3
[10] = plasma, iv, i.v. 2 mg/kg, read-out: Plasma CLtotal
[11] = plasma, iv, i.v. 6 mg/kg, mean ± SD n = 3
[12] = plasma, iv, i.v. 6 mg/kg, read-out: Plasma CLtotal
[13] = plasma, iv, i.v. 20 mg/kg, mean ± SD n = 3
[14] = plasma, iv, i.v. 20 mg/kg, read-out: Plasma CLtotal
[15] = whole blood, iv, i.v. 2 mg/kg, read-out: Blood CLtotal
[16] = whole blood, iv, i.v. 6 mg/kg, read-out: Blood CLtotal
[17] = whole blood, iv, i.v. 20 mg/kg, read-out: Blood CLtotal

T1 sequence (P08588 whole entry): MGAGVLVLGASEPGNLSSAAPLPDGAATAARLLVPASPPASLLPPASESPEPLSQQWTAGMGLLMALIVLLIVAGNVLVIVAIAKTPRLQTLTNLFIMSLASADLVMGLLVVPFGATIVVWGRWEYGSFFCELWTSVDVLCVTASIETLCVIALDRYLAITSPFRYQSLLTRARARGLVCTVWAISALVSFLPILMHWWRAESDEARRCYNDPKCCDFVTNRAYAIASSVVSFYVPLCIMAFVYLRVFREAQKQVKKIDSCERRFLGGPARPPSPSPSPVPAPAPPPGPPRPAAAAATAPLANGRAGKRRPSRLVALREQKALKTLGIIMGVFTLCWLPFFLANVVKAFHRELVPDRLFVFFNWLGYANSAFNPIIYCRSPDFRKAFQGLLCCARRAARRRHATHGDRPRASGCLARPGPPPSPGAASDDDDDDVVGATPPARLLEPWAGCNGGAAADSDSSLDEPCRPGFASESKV
T2 sequence (P07550 whole entry): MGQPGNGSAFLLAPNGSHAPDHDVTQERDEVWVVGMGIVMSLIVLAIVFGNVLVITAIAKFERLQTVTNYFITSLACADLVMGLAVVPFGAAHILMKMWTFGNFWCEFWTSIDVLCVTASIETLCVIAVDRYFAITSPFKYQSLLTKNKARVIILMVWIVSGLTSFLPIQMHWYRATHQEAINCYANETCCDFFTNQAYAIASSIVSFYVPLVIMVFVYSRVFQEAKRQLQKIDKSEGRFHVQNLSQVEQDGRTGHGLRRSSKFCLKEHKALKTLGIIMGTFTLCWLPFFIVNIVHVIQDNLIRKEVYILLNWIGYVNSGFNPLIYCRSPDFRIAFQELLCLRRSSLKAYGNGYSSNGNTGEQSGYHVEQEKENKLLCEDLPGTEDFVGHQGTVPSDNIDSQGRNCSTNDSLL
hERG potassium channel, sequence (Q12809 whole entry): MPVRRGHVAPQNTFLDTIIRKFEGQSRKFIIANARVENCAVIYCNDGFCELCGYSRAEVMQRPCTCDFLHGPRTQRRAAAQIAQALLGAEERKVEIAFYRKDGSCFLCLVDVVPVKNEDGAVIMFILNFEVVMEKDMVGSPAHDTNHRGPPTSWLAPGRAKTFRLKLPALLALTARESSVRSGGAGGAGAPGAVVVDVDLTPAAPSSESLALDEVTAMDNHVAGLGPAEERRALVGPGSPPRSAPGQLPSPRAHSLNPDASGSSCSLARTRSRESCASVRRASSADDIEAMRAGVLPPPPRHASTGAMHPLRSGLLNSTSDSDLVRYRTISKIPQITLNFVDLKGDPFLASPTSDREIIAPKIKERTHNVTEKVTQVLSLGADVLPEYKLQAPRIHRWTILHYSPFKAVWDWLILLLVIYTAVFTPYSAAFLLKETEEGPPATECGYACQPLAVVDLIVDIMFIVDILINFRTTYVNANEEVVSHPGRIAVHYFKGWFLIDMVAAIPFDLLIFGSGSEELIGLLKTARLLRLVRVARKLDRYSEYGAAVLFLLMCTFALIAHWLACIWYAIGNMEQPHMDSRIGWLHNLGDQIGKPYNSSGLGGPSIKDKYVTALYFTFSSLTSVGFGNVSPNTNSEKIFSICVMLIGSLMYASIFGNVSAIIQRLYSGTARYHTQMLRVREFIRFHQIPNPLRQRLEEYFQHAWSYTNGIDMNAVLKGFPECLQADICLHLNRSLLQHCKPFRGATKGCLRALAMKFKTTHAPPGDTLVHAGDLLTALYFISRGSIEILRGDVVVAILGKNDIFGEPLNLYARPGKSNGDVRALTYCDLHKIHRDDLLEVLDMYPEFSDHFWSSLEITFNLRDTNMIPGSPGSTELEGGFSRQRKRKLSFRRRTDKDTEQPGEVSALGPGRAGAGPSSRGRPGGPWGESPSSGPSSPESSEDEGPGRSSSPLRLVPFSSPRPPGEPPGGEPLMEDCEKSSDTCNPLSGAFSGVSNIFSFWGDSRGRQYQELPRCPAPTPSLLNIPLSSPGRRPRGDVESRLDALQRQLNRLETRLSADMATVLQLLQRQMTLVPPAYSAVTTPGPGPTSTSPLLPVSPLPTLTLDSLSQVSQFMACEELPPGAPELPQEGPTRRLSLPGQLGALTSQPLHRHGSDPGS

NC(=O)c1ccc(OCCNC[C@H](O)COc2ccc3c(c2)OC[C@@H](COCC2CC2)O3)cc1 [NDD-713]
AUC(0-t) ([1]; plasma, iv, i.v. 2 mg/kg): 1.2 ± 0.1 µM·h | half-life [1, 9]: 1.7 ± 0.2 h | clearance [1, 10]: 62 ± 4 mL/min/kg | Vd ([1]; plasma, iv, i.v. 2 mg/kg): 4.3 ± 0.4 L/kg | AUC(0-t) ([1]; plasma, iv, i.v. 6 mg/kg): 4.6 ± 0.3 µM·h | half-life [1, 11]: 1.6 ± 0.1 h | clearance [1, 12]: 43 ± 1 mL/min/kg | Vd ([1]; plasma, iv, i.v. 6 mg/kg): 3.6 ± 0.2 L/kg | AUC(0-t) ([1]; plasma, iv, i.v. 20 mg/kg): 14.7 ± 1 µM·h | half-life [1, 13]: 2 h | clearance [1, 14]: 51 ± 2 mL/min/kg | Vd ([1]; plasma, iv, i.v. 20 mg/kg): 4.2 ± 0.2 L/kg | AUC(0-t) ([1]; plasma, po, p.o. 2 mg/kg): 0.6 ± 0.2 µM·h | Cmax ([1]; plasma, po, p.o. 2 mg/kg): 200 ± 100 nM | Tmax ([1]; plasma, po, p.o. 2 mg/kg): 0.5 h | AUC(0-t) ([1]; plasma, po, p.o. 10 mg/kg): 5.1 ± 0.2 µM·h | Cmax ([1]; plasma, po, p.o. 10 mg/kg): 2100 ± 600 nM | Tmax ([1]; plasma, po, p.o. 10 mg/kg): 0.75 h | half-life ([1]; plasma, po, p.o. 10 mg/kg): 1.5 h | AUC(0-t) ([1]; plasma, po, p.o. 20 mg/kg): 6.3 ± 0.3 µM·h | Cmax ([1]; plasma, po, p.o. 20 mg/kg): 2000 ± 100 nM | Tmax ([1]; plasma, po, p.o. 20 mg/kg): 0.75 h | half-life ([1]; plasma, po, p.o. 20 mg/kg): 2.1 h | bioavailability ([1]; plasma, po, 2 mg/kg): 50 ± 11% | bioavailability ([1]; plasma, po, 10 mg/kg): 77 ± 3% | bioavailability ([1]; plasma, po, 20 mg/kg): 44 ± 1% | clearance [1, 15]: 51 ± 3 mL/min/kg | clearance [1, 16]: 36 ± 1 mL/min/kg | clearance [1, 17]: 42 ± 1 mL/min/kg | Unbound plasma level at Cmax below β2-AR Kd [1]: at least 5 fold | Likely duration of β1-AR blockade [1]: 10 h | AUC0-t/dose ([1]; i.v. 2 mg/kg): 0.6 ± 0.1 μM ⋅ h/(mg/kg) | AUC0-t/dose ([1]; i.v. 6 mg/kg): 0.8 ± 0 μM ⋅ h/(mg/kg) | AUC0-t/dose ([1]; i.v. 20 mg/kg): 0.7 ± 0 μM ⋅ h/(mg/kg) | AUC0-t/dose ([1]; p.o. 2 mg/kg): 0.4 ± 0.1 μM ⋅ h/(mg/kg) | AUC0-t/dose ([1]; p.o. 10 mg/kg): 0.5 ± 0.1 μM ⋅ h/(mg/kg) | AUC0-t/dose ([1]; p.o. 20 mg/kg): 0.3 ± 0 μM ⋅ h/(mg/kg) | fraction unbound at 4.2 h, 1 µM [2]: 0.67 | Maximum 3H-cAMP response relative to isoprenaline (human β1-AR [3]): No ^3H-cAMP responses were observed | Kd [4]: 3390 nM | CRE-SPAP production relative to isoprenaline maximum (human β1-AR [5]): no responses were observed | Affinity for the hERG channel (hERG potassium channel): no affinity for the hERG channel | fraction unbound at 1 h, 1 µM [6]: 0.15 | fraction unbound at 1 h, 1 µM [7]: 0.16 | hepatocyte CLint [8]: < 6 µL/min/1e6 cells

O=C1NCc2cc(OCCNC[C@H](O)COc3ccc4c(c3)OC[C@@H](COCC3CC3)O4)ccc21 [NDD-825]
AUC(0-t) ([1]; plasma, iv, i.v. 2 mg/kg): 1.4 µM·h | half-life [1, 9]: 5.3 ± 0.3 h | clearance [1, 10]: 54 ± 2 mL/min/kg | Vd ([1]; plasma, iv, i.v. 2 mg/kg): 6 ± 0.5 L/kg | AUC(0-t) ([1]; plasma, iv, i.v. 6 mg/kg): 3.8 ± 0.2 µM·h | half-life [1, 11]: 7.3 ± 0.1 h | clearance [1, 12]: 59 ± 1 mL/min/kg | Vd ([1]; plasma, iv, i.v. 6 mg/kg): 5 L/kg | AUC(0-t) ([1]; plasma, iv, i.v. 20 mg/kg): 12.1 ± 0.3 µM·h | half-life [1, 13]: 7.1 ± 1.3 h | clearance [1, 14]: 55 ± 1 mL/min/kg | Vd ([1]; plasma, iv, i.v. 20 mg/kg): 4.7 L/kg | AUC(0-t) ([1]; plasma, po, p.o. 2 mg/kg): 0.4 ± 0.1 µM·h | Cmax ([1]; plasma, po, p.o. 2 mg/kg): 100 nM | Tmax ([1]; plasma, po, p.o. 2 mg/kg): 1.38 h | half-life ([1]; plasma, po, p.o. 2 mg/kg): 9.8 ± 0.2 h | AUC(0-t) ([1]; plasma, po, p.o. 10 mg/kg): 3 ± 0.4 µM·h | Cmax ([1]; plasma, po, p.o. 10 mg/kg): 800 ± 100 nM | Tmax ([1]; plasma, po, p.o. 10 mg/kg): 0.75 h | half-life ([1]; plasma, po, p.o. 10 mg/kg): 4.6 ± 0.1 h | AUC(0-t) ([1]; plasma, po, p.o. 20 mg/kg): 11.9 ± 3 µM·h | Cmax ([1]; plasma, po, p.o. 20 mg/kg): 1400 ± 300 nM | Tmax ([1]; plasma, po, p.o. 20 mg/kg): 3.1 h | half-life ([1]; plasma, po, p.o. 20 mg/kg): 3.3 ± 0.2 h | bioavailability ([1]; plasma, po, 2 mg/kg): 32 ± 5% | bioavailability ([1]; plasma, po, 10 mg/kg): 45 ± 6% | bioavailability ([1]; plasma, po, 20 mg/kg): 89 ± 24% | clearance [1, 15]: 39 ± 1 mL/min/kg | clearance [1, 16]: 42 ± 1 mL/min/kg | clearance [1, 17]: 39 ± 1 mL/min/kg | Unbound plasma level at Cmax below β2-AR Kd [1]: at least 5 fold | Likely duration of β1-AR blockade [1]: > 24 h | AUC0-t/dose ([1]; i.v. 2 mg/kg): 0.6 ± 0 μM ⋅ h/(mg/kg) | AUC0-t/dose ([1]; i.v. 6 mg/kg): 0.6 ± 0 μM ⋅ h/(mg/kg) | AUC0-t/dose ([1]; i.v. 20 mg/kg): 0.6 ± 0 μM ⋅ h/(mg/kg) | AUC0-t/dose ([1]; p.o. 2 mg/kg): 0.2 ± 0 μM ⋅ h/(mg/kg) | AUC0-t/dose ([1]; p.o. 10 mg/kg): 0.3 ± 0.1 μM ⋅ h/(mg/kg) | AUC0-t/dose ([1]; p.o. 20 mg/kg): 0.5 ± 0.2 μM ⋅ h/(mg/kg) | fraction unbound at 4.2 h, 1 µM [2]: 0.63 | Maximum 3H-cAMP response relative to isoprenaline (human β1-AR [3]): No ^3H-cAMP responses were observed | Kd [4]: 1350 nM | CRE-SPAP production relative to isoprenaline maximum (human β1-AR [5]): no responses were observed | Affinity for the hERG channel (hERG potassium channel): no affinity for the hERG channel | fraction unbound at 1 h, 1 µM [6]: 0.01 | fraction unbound at 1 h, 1 µM [7]: 0.11 | hepatocyte CLint [8]: 6 µL/min/1e6 cells
